Patent US10807985B2 (Blueprint Medicines Corporation, priority 2013, dated 2020)

Tests used:
[1] = molecular target: KIT D816V kinase activity (KIT autophosphorylation at tyrosine 719) in HMC1.2 cells (Homo sapiens (Human), UniProt P10721, D816V/V560G); test: HMC1.2 autophosphorylation assay (phospho-Y719 c-KIT AlphaLISA); assay type: cell-based; details: HMC1.2 mast cell leukemia cell line (KIT V560G, D816V), 90 minutes compound; read-out: INH-KIT-PHOS-HMC1.2
D816V KIT = D816V KIT (Homo sapiens (Human), UniProt P10721, D816V); test: KIT D816V assay at Km (Caliper electrophoretic mobility shift); details: biochemical, 15 uM ATP (Km), 90 minutes at 25 C; read-out: INH KIT D816V
Chain of D816V KIT (P10721 26-976 D816V): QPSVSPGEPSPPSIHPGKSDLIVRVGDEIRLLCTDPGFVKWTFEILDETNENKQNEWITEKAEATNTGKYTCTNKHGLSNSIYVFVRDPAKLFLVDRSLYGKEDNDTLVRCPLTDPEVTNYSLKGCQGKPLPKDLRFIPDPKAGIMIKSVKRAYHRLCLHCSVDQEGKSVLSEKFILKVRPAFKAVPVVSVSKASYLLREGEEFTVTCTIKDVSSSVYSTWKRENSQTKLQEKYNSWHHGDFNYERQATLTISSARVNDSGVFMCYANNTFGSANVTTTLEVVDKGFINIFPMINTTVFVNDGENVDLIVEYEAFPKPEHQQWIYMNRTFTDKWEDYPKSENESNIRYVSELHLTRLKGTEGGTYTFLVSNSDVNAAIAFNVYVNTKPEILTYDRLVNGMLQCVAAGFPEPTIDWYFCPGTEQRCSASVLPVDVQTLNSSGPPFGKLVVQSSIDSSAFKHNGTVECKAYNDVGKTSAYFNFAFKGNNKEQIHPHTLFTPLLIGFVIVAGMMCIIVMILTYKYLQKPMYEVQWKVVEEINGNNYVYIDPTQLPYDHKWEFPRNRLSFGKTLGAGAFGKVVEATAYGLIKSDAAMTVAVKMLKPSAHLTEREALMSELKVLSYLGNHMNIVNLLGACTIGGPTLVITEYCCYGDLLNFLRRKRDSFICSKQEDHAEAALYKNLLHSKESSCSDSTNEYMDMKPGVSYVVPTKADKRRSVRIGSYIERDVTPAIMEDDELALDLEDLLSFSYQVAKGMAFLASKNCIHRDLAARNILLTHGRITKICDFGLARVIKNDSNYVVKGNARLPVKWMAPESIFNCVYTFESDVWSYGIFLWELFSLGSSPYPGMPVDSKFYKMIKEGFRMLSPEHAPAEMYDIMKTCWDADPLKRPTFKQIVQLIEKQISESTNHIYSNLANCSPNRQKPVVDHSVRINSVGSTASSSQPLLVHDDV

Chain of KIT D816V kinase activity (KIT autophosphorylation at tyrosine 719) in HMC1.2 cells (P10721 26-976 V560G/D816V): as the sequence (P10721 26-976 D816V) above, with V535G counted along it

| Compound | IC50 [1] [nM] | IC50 (D816V KIT) [nM] |
| --- | --- | --- |
| C[C@](N)(c1ccccc1)c1cnc(N2CCN(c3ncnn4cc(-c5cn[nH]c5)cc34)CC2)nc1 (single isomer, unassigned) [Compound 12] | < 50 |  |
| Cc1cc(-c2cc3c(N4CCN(c5ncc([C@](C)(O)c6ccc(F)cc6)cn5)CC4)ncnn3c2)no1 (single isomer, unassigned) [Compound 51] |  | 10 to 100 |
| Cn1cc(-c2cn3ncnc(N4CCN(c5ncc(C(C)(O)c6ccc(F)cc6)cn5)CC4)c3c2Cl)cn1 (stereo in doubt) [Compound 107, (S)-1-(2-(4-(5-chloro-6-(1-methyl-1H-pyrazol-4-yl)pyrrolo[1,2-f][1,2,4]triazin-4-yl)piperazin-1-yl)pyrimidin-5-yl)-1-(4-fluorophenyl)ethanol] | 1000 to 10000 | > 100 |
| Cn1cc(-c2cc3c(N4CCN(c5ccccc5)CC4)ncnn3c2)cn1 [Compound 1] |  | > 100 |
| COc1ccc(-c2cc3c(N4CCN(c5ccccc5)CC4)ncnn3c2)cc1 [Compound 2] | > 10000 | > 100 |
| COc1cc(OC)cc(-c2cc3c(N4CCN(c5ccccc5)CC4)ncnn3c2)c1 [Compound 4] | > 10000 | > 100 |
| COc1ccc(-c2cc3c(N4CCN(c5ccccc5)CC4)ncnn3c2)cc1OC [Compound 5] | 1000 to 10000 | 10 to 100 |
| CN(C)C(=O)c1ccc(-c2cc3c(N4CCN(c5ccccc5)CC4)ncnn3c2)cc1 [Compound 6] | > 10000 | > 100 |
| Cn1cc(-c2cc3c(N4CCN(c5ncc(Oc6ccc(F)cc6)cn5)CC4)ncnn3c2)cn1 [Compound 15] | 100 to 1000 | 10 to 100 |
| C=C(c1ccc(F)cc1)c1cnc(N2CCN(c3ncnn4cc(-c5cnn(C)c5)cc34)CC2)nc1 [Compound 23] | 100 to 1000 | 10 to 100 |
| Cn1cc(-c2cc3c(N4CCN(c5ncc([C@H](N)c6ccc(F)cc6)cn5)CC4)ncnn3c2)cn1 [Compound 28] | < 50 | 1.01 to 10 |
| Cn1cc(-c2cc3c(N4CCN(c5ncc([C@@H](O)c6ccc(F)cc6)cn5)CC4)ncnn3c2)cn1 [Compound 31] | < 50 | 1.01 to 10 |
| Cn1cc(-c2cc3c(N4CCN(c5ncc([C@H](O)c6ccc(F)cc6)cn5)CC4)ncnn3c2)cn1 [Compound 32] | < 50 | 1.01 to 10 |
| NC(=O)c1ccc(-c2cc3c(N4CCN(c5ncc(Cc6ccccc6)cn5)CC4)ncnn3c2)cc1 [Compound 33] | 100 to 1000 | 1.01 to 10 |
| CN(C)[C@@H](c1ccccc1)c1cnc(N2CCN(c3ncnn4cc(-c5cnn(C)c5)cc34)CC2)nc1 [Compound 36, (S)—N,N-dimethyl-1-(2-(4-(6-(1-methyl-1H-pyrazol-4-yl)pyrrolo[2,1-f][1,2,4]triazin-4-yl)piperazin-1-yl)pyrimidin-5-yl)-1-phenylmethanamine] | 100 to 1000 | 1.01 to 10 |
| CN(C)[C@H](c1ccccc1)c1cnc(N2CCN(c3ncnn4cc(-c5cnn(C)c5)cc34)CC2)nc1 [Compound 37] | 1000 to 10000 | 10 to 100 |
| Cn1cc(-c2cc3ncnc(N4CCN(c5ncc(C(C)(C)c6ccc(F)cc6)cn5)CC4)n3n2)cn1 [Compound 42] | 1000 to 10000 | 10 to 100 |
| Cn1cc(-c2cc3c(N4CCN(c5ncc([C@](C)(O)c6ccccc6F)cn5)CC4)ncnn3c2)cn1 [Compound 48] | < 50 | 1.01 to 10 |
| Cn1cc(-c2cc3c(N4CCN(c5ncc([C@H](CO)c6ccc(F)cc6)cn5)CC4)ncnn3c2)cn1 [Compound 50] | < 50 | 1.01 to 10 |
| Cn1cc(-c2cc3c(N4CCN(c5ncc([C@](C)(O)c6ccc(F)cn6)cn5)CC4)ncnn3c2)cn1 [Compound 53] | 1000 to 10000 | 10 to 100 |
| Cn1cc(-c2cc3c(N4CCN(c5ncc([C@@](C)(O)c6ccc(F)cn6)cn5)CC4)ncnn3c2)cn1 [Compound 54] | 100 to 1000 | 1.01 to 10 |
| C[C@@H]1CN(c2ncnn3cc(-c4cnn(C)c4)cc23)CCN1c1ncc(Sc2ccccc2F)cn1 [Compound 55] | 100 to 1000 | 10 to 100 |
| Cc1ccc(-c2cc3c(N4CCN(c5ncc([C@@](C)(O)c6ccc(F)cc6)cn5)CC4)ncnn3c2)cc1 [Compound 59] | 100 to 1000 | 10 to 100 |
| Cc1ccc(-c2cc3c(N4CCN(c5ncc([C@@](C)(O)c6ccc(F)cc6)cn5)CC4)ncnn3c2)cn1 [Compound 60] | < 50 | 1.01 to 10 |
| Cc1cc(F)ccc1[C@](C)(O)c1cnc(N2CCN(c3ncnn4cc(-c5cnn(C)c5)cc34)CC2)nc1 [Compound 80] |  | 10 to 100 |

Next, values leading:

| IC50 [1] [nM] | IC50 (D816V KIT) [nM] | Compound |
| --- | --- | --- |
| 100 to 1000 | 1.01 to 10 | CC[C@H](c1ccc(F)cc1)c1cnc(N2CCN(c3ncnn4cc(-c5cnn(C)c5)cc34)CC2)nc1 (single isomer, unassigned) [Compound 40] |
| 100 to 1000 | 1.01 to 10 | Cc1cc(-c2cc3c(N4CCN(c5ncc([C@@](C)(O)c6ccc(F)cc6)cn5)CC4)ncnn3c2)no1 (single isomer, unassigned) [Compound 52] |
| 50 to 100 | 1.01 to 10 | Cc1nn(C)cc1-c1cc2c(N3CCN(c4ncc([C@](C)(O)c5ccc(F)cc5)cn4)CC3)ncnn2c1 (single isomer, unassigned) [Compound 71] |
| < 50 | < 1 | Cc1nn(C)cc1-c1cc2c(N3CCN(c4ncc([C@@](C)(O)c5ccc(F)cc5)cn4)CC3)ncnn2c1 (single isomer, unassigned) [Compound 72] |
| 100 to 1000 | 1.01 to 10 | C[C@@H]1CN(c2ncnn3cc(-c4cnn(C)c4)cc23)CCN1c1ncc(Cc2ccccc2)cn1 [Compound 8] |
| 100 to 1000 | 1.01 to 10 | Cn1cc(-c2cc3c(N4CCN(c5ccc(C(O)c6ccccc6)cn5)CC4)ncnn3c2)cn1 (stereo not shown) [Compound 11] |
| 100 to 1000 | 1.01 to 10 | Cn1cc(-c2cc3c(N4CCN(c5ncc([C@H](N)c6ccccc6)cn5)CC4)ncnn3c2)cn1 [Compound 13, (R)-(2-(4-(6-(1-methyl-1H-pyrazol-4-yl)pyrrolo[2,1-f][1,2,4]triazin-4-yl)piperazin-1-yl)pyrimidin-5-yl)(phenyl)methanamine] |
| 100 to 1000 | 1.01 to 10 | N#Cc1ccc(-c2cc3c(N4CCN(c5ncc(Cc6ccccc6)cn5)CC4)ncnn3c2)cc1 [Compound 16] |
| 100 to 1000 | 1.01 to 10 | Cc1c(-c2cc3c(N4CCN(c5ncc(Cc6ccccc6)cn5)[C@H](C)C4)ncnn3c2)cnn1C [Compound 19] |
| 100 to 1000 | 1.01 to 10 | Cn1cc(-c2cc3c(N4CCN(c5ncc([C@](C)(O)c6ccccc6)cn5)CC4)ncnn3c2)cn1 [Compound 24] |
| < 50 | < 1 | Cn1cc(-c2cc3c(N4CCN(c5ncc([C@@](C)(O)c6ccccc6)cn5)CC4)ncnn3c2)cn1 [Compound 25] |
| < 50 | 1.01 to 10 | Cn1cc(-c2cc3c(N4CCN(c5ncc([C@@H](N)c6ccc(F)cc6)cn5)CC4)ncnn3c2)cn1 [Compound 27] |
| < 50 | < 1 | Cn1cc(-c2cc3c(N4CCN(c5ncc([C@@](C)(O)c6ccccc6F)cn5)CC4)ncnn3c2)cn1 [Compound 47] |
| < 50 | < 1 | Cn1cc(-c2cc3c(N4CCN(c5ncc([C@@H](CO)c6ccc(F)cc6)cn5)CC4)ncnn3c2)cn1 [Compound 49] |
| < 50 | < 1 | Cn1cc(-c2cc3c(N4CCN(c5ncc(Sc6ccccc6F)c(N)n5)CC4)ncnn3c2)cn1 [Compound 56] |
